Measured values as given in US12465603B2, “Phthalazinone based modulators for the treatment of disease” (Soley Therapeutics, Inc., priority 2022, dated 2025).

Tests used:
[1] = test system: PA1 (ECACC, 90013101) cells; test: Cell viability assay (Cell Titre Glo, 72 hours) in PA1 cells; format: cell-based; settings: Homo sapiens, PA-1
Procedure, shortened: (§1)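 10-point dose response, top final concentration 30 μM, 1 in 3 dilutions; 5000 cells per well added directly to compound. Incubated 72 hours at 37° C, 5% CO2, then viability read by Cell Titre Glo luminescence and IC50 curves fitted.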

[2] = test system: A2058 (ATCC, CRL-11147) cells; test: Cell viability assay (Cell Titre Glo, 72 hours) in A2058 cells; format: cell-based; settings: Homo sapiens
Procedure, shortened: as §1

SMILES | IC50 [1] [nM] | IC50 [2] [nM]
COc1cc(F)ccc1N1CCN(C(=O)c2nn(C)c(=O)c3cnccc23)CC1 [Compound 178] | > 20000 | > 20000
COc1ccccc1N1CCN(C(=O)c2nn(C)c(=O)c3cnccc23)CC1 [Compound 179] | 1000 to 10000 | 1000 to 10000
COc1cc(F)cc(N2CCN(C(=O)c3nn(C)c(=O)c4cnccc34)CC2)c1 [Compound 180] | ≤ 1000 | 1000 to 10000
Cn1nc(C(=O)N2CCN(c3ccccc3C3CC3)CC2)c2ccncc2c1=O [Compound 181] | ≤ 1000 | ≤ 1000
COc1cccc(N2CCN(C(=O)c3nn(C)c(=O)c4ncccc34)CC2)c1 [Compound 182, 5-(4-(3-methoxyphenyl)piperazine-1-carbonyl)-7-methylpyrido[2,3-d]pyridazin-8(7H)-one] | > 20000 | > 20000
COc1ccccc1N1CCN(C(=O)c2nn(C)c(=O)c3ncccc23)CC1 [Compound 183] | 10000 to 20000 | > 20000
COc1cc(F)cc(N2CCN(C(=O)c3nn(C)c(=O)c4ncccc34)CC2)c1 [Compound 184, 5-(4-(3-fluoro-5-methoxyphenyl)piperazine-1-carbonyl)-7-methylpyrido[2,3-d]pyridazin-8(7H)-one] | 1000 to 10000 | 10000 to 20000
Cn1nc(C(=O)N2CCN(c3nnccc3C3CC3)CC2)c2ccccc2c1=O [Compound 185, 4-[4-(4-cyclopropylpyridazin-3-yl)piperazine-1-carbonyl]-2-methyl-phthalazin-1-one] | 1000 to 10000 | 1000 to 10000
CCn1nc(C(=O)N2CCN(c3ccc(F)c4c3OCC4)CC2)c2ccccc2c1=O [Compound 186, 2-ethyl-4-(4-(4-fluoro-2,3-dihydrobenzofuran-7-yl)piperazine-1-carbonyl)phthalazin-1(2H)-one] | ≤ 1000 | ≤ 1000
CCn1nc(C(=O)N2CCN(c3ccnc4c3OCC4)CC2)c2ccccc2c1=O [Compound 187] | ≤ 1000 | ≤ 1000
CCn1nc(C(=O)N2CCN(c3ccc(F)c4c3CCO4)CC2)c2ccccc2c1=O [Compound 188] | ≤ 1000 | ≤ 1000
Cn1nc(C(=O)N2CCN(c3ccnc4c3OCC4)CC2)c2ccccc2c1=O [Compound 189] | ≤ 1000 | ≤ 1000
Cn1nc(C(=O)N2CCN(c3cncc4c3OCC4)CC2)c2ccccc2c1=O [Compound 190] | ≤ 1000 | ≤ 1000
Cn1nc(C(=O)N2CCN(c3cccc4cnn(C)c34)CC2)c2ccccc2c1=O [Compound 191] | > 20000 | > 20000
Cn1nc(C(=O)N2CCN(c3cccn4ccnc34)CC2)c2ccccc2c1=O [Compound 192] | 1000 to 10000 | 10000 to 20000
Cn1nc(C(=O)N2CCN(c3ccnc4cnn(C)c34)CC2)c2ccccc2c1=O [Compound 193] | > 20000 | > 20000
Cn1nc(C(=O)N2CCN(c3nccc4sccc34)CC2)c2ccccc2c1=O [Compound 194] | 1000 to 10000 | 10000 to 20000
Cn1nc(C(=O)N2CCN(c3nccc4occc34)CC2)c2ccccc2c1=O [Compound 195] | 10000 to 20000 | 10000 to 20000
Cn1nc(C(=O)N2CCN(c3nccn4ccnc34)CC2)c2ccccc2c1=O [Compound 196] | > 20000 | > 20000
Cn1nc(C(=O)N2CCN(c3cc(F)cc(OC(F)(F)F)c3)CC2)c2ccccc2c1=O [Compound 197] | ≤ 1000 | 1000 to 10000

SMILES | IC50 [1] [nM] | IC50 [2] [nM]
Cn1nc(C(=O)N2CCN(c3cc(F)cc(OC(F)F)c3)CC2)c2ccccc2c1=O [Compound 198] | ≤ 1000 | ≤ 1000
Cn1nc(C(=O)N2CCN(c3cc(C#N)cc(OC(F)F)c3)CC2)c2ccccc2c1=O [Compound 199] | ≤ 1000 | ≤ 1000
Cn1nc(C(=O)N2CCN(c3cc(C#N)ccc3C(F)F)CC2)c2ccccc2c1=O [Compound 200] | 1000 to 10000 | 1000 to 10000
Cn1nc(C(=O)N2CCN(c3cc(C#N)cc(C(F)F)c3)CC2)c2ccccc2c1=O [Compound 201] | ≤ 1000 | ≤ 1000
Cn1nc(C(=O)N2CCN(c3ccc4nccn4c3)CC2)c2ccccc2c1=O [Compound 202] | > 20000 | > 20000
Cn1nc(C(=O)N2CCN(c3ccc4ccnn4c3)CC2)c2ccccc2c1=O [Compound 203] | > 20000 | > 20000
CC(C)c1cncc(N2CCN(C(=O)c3nn(C)c(=O)c4ccccc34)CC2)c1 [Compound 204] | > 20000 | > 20000
Cc1cc(C)cc(N2CCN(C(=O)c3nn(C)c(=O)c4ccccc34)CC2)c1 [Compound 205] | ≤ 1000 | ≤ 1000
Cn1nc(C(=O)N2CCN(c3cc(C#N)cc(C4CC4)c3)CC2)c2ccccc2c1=O [Compound 206] | ≤ 1000 | ≤ 1000
CCn1nc(C(=O)N2CCN(c3cccc(C#N)c3)CC2)c2ccccc2c1=O [Compound 207] | ≤ 1000 | ≤ 1000
Cc1cncc(N2CCN(C(=O)c3nn(C)c(=O)c4ccc(F)cc34)CC2)c1C [Compound 208] | ≤ 1000 | 1000 to 10000
CC(C)c1cncc(N2CCN(C(=O)c3nn(C)c(=O)c4ccc(F)cc34)CC2)c1 [Compound 209] | 10000 to 20000 | 10000 to 20000
CCc1cncc(N2CCN(C(=O)c3nn(C)c(=O)c4ccc(F)cc34)CC2)c1 [Compound 210] | ≤ 1000 | 1000 to 10000
Cc1ccc(C#N)cc1N1CCN(C(=O)c2nn(C)c(=O)c3ccc(F)cc23)CC1 [Compound 211] | ≤ 1000 | ≤ 1000
Cn1nc(C(=O)N2CCN(c3cc(F)cc(C#N)c3)CC2)c2cc(F)ccc2c1=O [Compound 212] | ≤ 1000 | ≤ 1000
COc1cc(C#N)cc(N2CCN(C(=O)c3nn(C)c(=O)c4ccc(F)cc34)CC2)c1 [Compound 213] | ≤ 1000 | ≤ 1000
Cc1cc(C#N)cc(N2CCN(C(=O)c3nn(C)c(=O)c4ccncc34)CC2)c1 [Compound 214] | ≤ 1000 | 1000 to 10000
Cc1cc(C)cc(N2CCN(C(=O)c3nn(C)c(=O)c4ccncc34)CC2)c1 [Compound 215] | ≤ 1000 | 1000 to 10000
COc1cc(C#N)cc(N2CCN(C(=O)c3nn(C)c(=O)c4ccncc34)CC2)c1 [Compound 216] | ≤ 1000 | ≤ 1000
COc1cc(C)cc(N2CCN(C(=O)c3nn(C)c(=O)c4ccncc34)CC2)c1 [Compound 217] | ≤ 1000 | ≤ 1000

SMILES | IC50 [1] [nM] | IC50 [2] [nM]
Cn1nc(C(=O)N2CCN(c3cc(Cl)cc(Cl)c3)CC2)c2cnccc2c1=O [Compound 218] | ≤ 1000 | ≤ 1000
Cn1nc(C(=O)N2CCN(c3cccc(C#N)c3)CC2)c2cnccc2c1=O [Compound 219] | 1000 to 10000 | 1000 to 10000
Cn1nc(C(=O)N2CCN(c3cc(F)cc(C#N)c3)CC2)c2cnccc2c1=O [Compound 220] | 1000 to 10000 | 1000 to 10000
Cc1cc(Cl)cc(N2CCN(C(=O)c3nn(C)c(=O)c4ccncc34)CC2)c1 [Compound 221] | ≤ 1000 | ≤ 1000
Cn1nc(C(=O)N2CCN(c3cc(F)cc(Cl)c3)CC2)c2cnccc2c1=O [Compound 222] | ≤ 1000 | ≤ 1000
Cn1nc(C(=O)N2CCN(c3cc(Cl)cc(C#N)c3)CC2)c2cnccc2c1=O [Compound 223] | ≤ 1000 | 1000 to 10000
COc1cc(C#N)cc(N2CCN(C(=O)c3nn(C)c(=O)c4ccccc34)CC2)c1 [Compound 224, 3-methoxy-5-(4-(3-methyl-4-oxo-3,4-dihydrophthalazine-1-carbonyl)piperazin-1-yl)benzonitrile] | ≤ 1000 | ≤ 1000
Cn1nc(C(=O)N2CCN(c3cc(Cl)cc(C#N)c3)CC2)c2ccccc2c1=O [Compound 225] | ≤ 1000 | ≤ 1000
Cn1nc(C(=O)N2CCN(c3cncc(C#N)c3)CC2)c2ccccc2c1=O [Compound 226] | > 20000 | > 20000
Cn1nccc1N1CCN(C(=O)c2nn(C)c(=O)c3ccccc23)CC1 [Compound 227] | > 20000 | > 20000
Cn1nc(C(=O)N2CCN(c3cccc(C#N)n3)CC2)c2ccccc2c1=O [Compound 228] | 1000 to 10000 | 10000 to 20000
Cn1nc(C(=O)N2CCN(c3cc(C#N)ccc3Cl)CC2)c2ccccc2c1=O [Compound 229, 4-chloro-3-(4-(3-methyl-4-oxo-3,4-dihydrophthalazine-1-carbonyl)piperazin-1-yl)benzonitrile] | ≤ 1000 | ≤ 1000
Cn1nc(C(=O)N2CCN(c3cc(C#N)cc(C#N)c3)CC2)c2ccccc2c1=O [Compound 230, 5-(4-(3-methyl-4-oxo-3,4-dihydrophthalazine-1-carbonyl)piperazin-1-yl)isophthalonitrile] | ≤ 1000 | 1000 to 10000
Cn1nc(C(=O)N2CCN(c3cccc4nccn34)CC2)c2ccccc2c1=O [Compound 231, 4-(4-(imidazo[1,2-a]pyridin-5-yl)piperazine-1-carbonyl)-2-methylphthalazin-1(2H)-one] | > 20000 | > 20000
Cn1nc(C(=O)N2CCN(c3cnccc3C3CC3)CC2)c2cc(F)ccc2c1=O [Compound 232, 4-(4-(4-cyclopropylpyridin-3-yl)piperazine-1-carbonyl)-6-fluoro-2-methylphthalazin-1(2H)-one] | ≤ 1000 | ≤ 1000
COc1c(F)cncc1N1CCN(C(=O)c2nn(C)c(=O)c3ccc(F)cc23)CC1 [Compound 233] | ≤ 1000 | 1000 to 10000
Cn1nc(C(=O)N2CCN(c3cncc(C#N)c3)CC2)c2cc(F)ccc2c1=O [Compound 234, 5-(4-(7-fluoro-3-methyl-4-oxo-3,4-dihydrophthalazine-1-carbonyl)piperazin-1-yl)nicotinonitrile] | > 20000 | > 20000
Cc1cc(C#N)cc(N2CCN(C(=O)c3nn(C)c(=O)c4ccc(F)cc34)CC2)c1 [Compound 235] | ≤ 1000 | ≤ 1000
